Measured values: ChEMBL document CHEMBL1795319, “Design, synthesis and antifungal evaluation of 1-(2-(2,4-difluorophenyl)-2-hydroxy-3-(1H-1,2,4-triazol-1-yl)propyl)-1H-1,2,4-triazol-5(4H)-one” (2011)
Values after ≈ are worked out from the molar mass of the structure shown.

Assays:
Assay type in all cases: functional
Trichophyton rubrum = assay: Antifungal activity against Trichophyton rubrum by micro-broth dilution method
Candida tropicalis = assay: Antifungal activity against Candida tropicalis by micro-broth dilution method
Cryptococcus neoformans = assay: Antifungal activity against Cryptococcus neoformans BLS108 after 72 hrs by micro-broth dilution method; conditions: BLS108, 72 h
Kluyveromyces marxianus = assay: Antifungal activity against Candida kefyr by micro-broth dilution method
Candida albicans [1] = assay: Antifungal activity against Candida albicans SC5314 after 24 hrs by micro-broth dilution method; conditions: SC5314, 24 h
Aspergillus fumigatus = assay: Antifungal activity against Aspergillus fumigatus by broth microdilution method
Candida parapsilosis = assay: Antifungal activity against Candida parapsilosis by micro-broth dilution method; conditions: Lodderomyces parapsilosis
Candida albicans [2] = assay: Antifungal activity against Candida albicans Y0109 after 24 hrs by micro-broth dilution method; conditions: Y0109, 24 h

Compound | MIC80 (Trichophyton rubrum) | MIC80 (Candida tropicalis) | MIC80 (Cryptococcus neoformans) | MIC80 (Kluyveromyces marxianus) | MIC80 (Candida albicans [1]) | MIC80 (Aspergillus fumigatus) | MIC80 (Candida parapsilosis) | MIC80 (Candida albicans [2])
O=c1n(-c2ccc(Cl)cc2)cnn1CC(O)(Cn1cncn1)c1ccc(F)cc1F (racemic) | 16 µg/mL (≈ 37 µM) | 0.0625 µg/mL (≈ 0.144 µM) | 64 µg/mL (≈ 148 µM) | 0.0156 µg/mL (≈ 0.036 µM) | 0.0625 µg/mL (≈ 0.144 µM) | > 64 µg/mL | 1 µg/mL (≈ 2.31 µM) | 0.0625 µg/mL (≈ 0.144 µM)
N#Cc1ccc(-n2cnn(CC(O)(Cn3cncn3)c3ccc(F)cc3F)c2=O)cc1 (racemic) | 64 µg/mL (≈ 151 µM) | 4 µg/mL (≈ 9.45 µM) | > 64 µg/mL | 16 µg/mL (≈ 37.8 µM) | 1 µg/mL (≈ 2.36 µM) | > 64 µg/mL | 1 µg/mL (≈ 2.36 µM) | 1 µg/mL (≈ 2.36 µM)
O=c1n(-c2nc(-c3ccc(Cl)cc3Cl)cs2)cnn1CC(O)(Cn1cncn1)c1ccc(F)cc1F (racemic) | 64 µg/mL (≈ 116 µM) | 16 µg/mL (≈ 29.1 µM) | 64 µg/mL (≈ 116 µM) | 4 µg/mL (≈ 7.27 µM) | 16 µg/mL (≈ 29.1 µM) | > 64 µg/mL | 64 µg/mL (≈ 116 µM) | 16 µg/mL (≈ 29.1 µM)
O=C(Nc1ccc(-n2cnn(CC(O)(Cn3cncn3)c3ccc(F)cc3F)c2=O)cc1)C1CCCCC1 (racemic) | 16 µg/mL (≈ 30.6 µM) | > 64 µg/mL | > 64 µg/mL | > 64 µg/mL | > 64 µg/mL | > 64 µg/mL | > 64 µg/mL | > 64 µg/mL
CCC(=O)Nc1ccc(-n2cnn(CC(O)(Cn3cncn3)c3ccc(F)cc3F)c2=O)cc1 (racemic) | > 64 µg/mL | 16 µg/mL (≈ 34.1 µM) | > 64 µg/mL | 64 µg/mL (≈ 136 µM) | 1 µg/mL (≈ 2.13 µM) | > 64 µg/mL | 4 µg/mL (≈ 8.52 µM) | 4 µg/mL (≈ 8.52 µM)
N#Cc1cccc(-n2cnn(CC(O)(Cn3cncn3)c3ccc(F)cc3F)c2=O)c1 (racemic) | 4 µg/mL (≈ 9.45 µM) | 0.00024 µg/mL (≈ 0.000567 µM) | 0.25 µg/mL (≈ 0.59 µM) | 0.00024 µg/mL (≈ 0.000567 µM) | 0.00024 µg/mL (≈ 0.000567 µM) | > 64 µg/mL | 0.00024 µg/mL (≈ 0.000567 µM) | 0.00024 µg/mL (≈ 0.000567 µM)
COc1ccc(-n2cnn(CC(O)(Cn3cncn3)c3ccc(F)cc3F)c2=O)cc1 (racemic) | 16 µg/mL (≈ 37.3 µM) | 0.0625 µg/mL (≈ 0.146 µM) | 16 µg/mL (≈ 37.3 µM) | 0.0625 µg/mL (≈ 0.146 µM) | 1 µg/mL (≈ 2.33 µM) | > 64 µg/mL | 1 µg/mL (≈ 2.33 µM) | 0.0625 µg/mL (≈ 0.146 µM)
CC(=O)Nc1ccc(-n2cnn(CC(O)(Cn3cncn3)c3ccc(F)cc3F)c2=O)cc1 (racemic) | > 64 µg/mL | 16 µg/mL (≈ 35.1 µM) | > 64 µg/mL | > 64 µg/mL | 16 µg/mL (≈ 35.1 µM) | > 64 µg/mL | 16 µg/mL (≈ 35.1 µM) | 4 µg/mL (≈ 8.78 µM)
O=C(Nc1ccc(-n2cnn(CC(O)(Cn3cncn3)c3ccc(F)cc3F)c2=O)cc1)C1CC1 (racemic) | > 64 µg/mL | 1 µg/mL (≈ 2.08 µM) | > 64 µg/mL | > 64 µg/mL | 0.0625 µg/mL (≈ 0.13 µM) | > 64 µg/mL | 0.25 µg/mL (≈ 0.519 µM) | 0.0625 µg/mL (≈ 0.13 µM)
CCCCCCCC(=O)Nc1ccc(-n2cnn(CC(O)(Cn3cncn3)c3ccc(F)cc3F)c2=O)cc1 (racemic) | > 64 µg/mL | 64 µg/mL (≈ 119 µM) | > 64 µg/mL | > 64 µg/mL | 4 µg/mL (≈ 7.41 µM) | > 64 µg/mL | 64 µg/mL (≈ 119 µM) | 16 µg/mL (≈ 29.7 µM)
O=c1n(-c2ccccc2)cnn1CC(O)(Cn1cncn1)c1ccc(F)cc1F (racemic) | 16 µg/mL (≈ 40.2 µM) | 0.25 µg/mL (≈ 0.628 µM) | 64 µg/mL (≈ 161 µM) | 0.25 µg/mL (≈ 0.628 µM) | 1 µg/mL (≈ 2.51 µM) | > 64 µg/mL | 4 µg/mL (≈ 10 µM) | 0.25 µg/mL (≈ 0.628 µM)
O=C(Nc1ccc(-n2cnn(CC(O)(Cn3cncn3)c3ccc(F)cc3F)c2=O)cc1)c1ccccn1 (racemic) | > 64 µg/mL | > 64 µg/mL | > 64 µg/mL | 16 µg/mL (≈ 30.9 µM) | 1 µg/mL (≈ 1.93 µM) | > 64 µg/mL | 4 µg/mL (≈ 7.71 µM) | 4 µg/mL (≈ 7.71 µM)
O=c1n(-c2ccc(Cl)c(Cl)c2)cnn1CC(O)(Cn1cncn1)c1ccc(F)cc1F (racemic) | > 64 µg/mL | 64 µg/mL (≈ 137 µM) | 0.25 µg/mL (≈ 0.535 µM) | 16 µg/mL (≈ 34.2 µM) | 4 µg/mL (≈ 8.56 µM) | > 64 µg/mL | 16 µg/mL (≈ 34.2 µM) | 16 µg/mL (≈ 34.2 µM)
Cc1ccnc(-n2cnn(CC(O)(Cn3cncn3)c3ccc(F)cc3F)c2=O)c1 (racemic) | 64 µg/mL (≈ 155 µM) | 0.00024 µg/mL (≈ 0.000581 µM) | 0.00024 µg/mL (≈ 0.000581 µM) | 0.0625 µg/mL (≈ 0.151 µM) | 0.00024 µg/mL (≈ 0.000581 µM) | > 64 µg/mL | 0.00024 µg/mL (≈ 0.000581 µM) | 0.00024 µg/mL (≈ 0.000581 µM)
CCCCCC(=O)Nc1ccc(-n2cnn(CC(O)(Cn3cncn3)c3ccc(F)cc3F)c2=O)cc1 (racemic) | 64 µg/mL (≈ 125 µM) | 0.00097 µg/mL (≈ 0.0019 µM) | 0.0625 µg/mL (≈ 0.122 µM) | 4 µg/mL (≈ 7.82 µM) | 0.00097 µg/mL (≈ 0.0019 µM) | > 64 µg/mL | 0.00024 µg/mL (≈ 0.000469 µM) | 0.00024 µg/mL (≈ 0.000469 µM)
CCC(C)n1ncn(-c2ccc(N3CCN(c4ccc(OCC5COC(Cn6cncn6)(c6ccc(Cl)cc6Cl)O5)cc4)CC3)cc2)c1=O (stereo not drawn) [ITRACONAZOLE] | 0.0625 µg/mL (≈ 0.0886 µM) | 0.0625 µg/mL (≈ 0.0886 µM) | 0.0625 µg/mL (≈ 0.0886 µM) | 0.0625 µg/mL (≈ 0.0886 µM) | 0.0625 µg/mL (≈ 0.0886 µM) | 0.0625 µg/mL (≈ 0.0886 µM) | 0.0625 µg/mL (≈ 0.0886 µM) | 0.0625 µg/mL (≈ 0.0886 µM)
